Experimental data as given in patent publication US20100323990A1, “SHIP 1 MODULATOR PRODRUGS” (THE UNIVERSITY OF BRITISH COLUMBIA, priority 2006, published 2010).

System: SHIP+/+ bone marrow derived macrophages
Assay: LPS-stimulated TNFα production in SHIP+/+ bone marrow derived macrophages
Assay type: cell-based, mice
Settings: for suppression of TNFα production: SHIP+/+ cells, 10 ng/mL LPS 2 h
Method: Bone marrow cells were aspirated from 4 to 8 week old C57B16×129Sv mixed background mice and SHIP^+/+ and SHIP^−/− mast cells prepared as described previously. Bone marrow derived macrophages from SHIP^+/+ and SHIP^−/− mice were obtained and maintained in IMDM supplemented with 10% FCS, 150 μM MTG, 2% C127 cell conditioned medium as a source of macrophage colony stimulating factor (M-CSF) (macrophage medium)
LPS stimulation of macrophages. For the analysis of LPS-stimulated TNFα production, 2×10^5 cells were plated the night before in 24 well plates in macrophage medium. The next day, the medium was changed and AQX-016A or carrier was added to cells at the indicated concentrations for 30 min prior to the addition of 10 ng/mL LPS. Supernatants were collected for TNFα determination by ELISA (BD Biosciences, Mississauga, ON, Canada). For analysis of intracellular signaling, 2×10^6 cells were plated the night before in 6 cm tissue culture plates. The next day, the cells were cultured in macrophage medium without M-CSF for 1 hr at 37° C. and then pretreated with AQX-016A or carrier for 30 min prior to the addition of 10 ng/mL LPS for 15 min. Cells were washed with 4° C. PBS and resuspended in lysis buffer (50 mM Hepes, 2 mM EDTA, 1 mM NaVO4, 100 mM NaF, 50 mM NaPPi and 1% NP40) supplemented with Complete Protease Inhibitor Cocktail (Roche, Montreal, Canada). Lysates were rocked at 4° C. for 30 min and clarified by centrifuging 20 min at 12000×g. Lysates were then made 1× in Laemmli's buffer, boiled 2 min and loaded onto 7.5% SDS polyacrylamide […]. Immunoblot analysis for phospho PKB (Cell Signalling, Mississauga, Ont), SHIP and actin (Santa Cruz, Santa Cruz, Calif.) were carried out as described previously. Stimulation of mast cells by FcεRI crosslinking. Mast cells were pre-loaded overnight in BMMC medium lacking IL-3 with 0.1 μg/ml anti-DNP IgE (SPE-7, Sigma, Oakville, Ont). For calcium flux measurements, cells were incubated with 2 μM fura 2-acetoxymethyl ester (Molecular Probes, Eugene, Oreg.) in Tyrode's buffer at 23° C. for 45 min. Cells were then washed and incubated in the presence of vehicle control, LY294002 or AQX-016A 30 min prior to stimulation with the indicated concentration of DNP-human serum albumin (DNP-HSA). Calcium influx was monitored by spectrofluorometry. For analysis of intracellular signaling, cells were pre-loaded with anti-DNP IgE as above, pre-treated with AQX-016A or buffer control for 30 min at 37° C. and stimulated with 20 ng/ml DNP-HSA for 5 min. Total cell lysates were then prepared and analyzed for phospho-PKB, phospho-p38^MAPK, phospho-MAPK, Grb-2 (Cell Signalling, Mississauga, Ont) and SHIP^6 by immunoblot analysis.
The target specificity and biological efficacy of AQX-016A were assessed by comparing AQX-016A's effects on PI3K-regulated processes in primary SHIP^+/+ vs SHIP^−/− macrophages and mast cells. […] LPS stimulation of macrophages is associated with a PIP3-dependent release of pro-inflammatory mediators such as TNFα. The action of AQX-016A on SHIP^+/+ vs SHIP^−/− bone marrow derived macrophages was examined. Cells were pretreated for 30 min with AQX-016A prior to stimulation with 10 ng/mL of LPS for 2 h. AQX-016A was able to suppress TNFα production in SHIP^+/+ cells by 30% at 3 μM and 50% at 15 μM (FIG. 8A). […] Activation of mast cells via IgE+ antigen crosslinking of their IgE receptors results in elevation of intracellular calcium levels.

Row | Structure (SMILES) | TNFα production, SHIP+/+ vs SHIP−/− macrophages (LPS stimulated) | EC50 (Mus musculus, Macrophage, SHIP+/+ macrophages, LPS stimulated, read-out: EC50 for inhibition of TNFα production) | suppression of TNFα production (3 μM) | suppression of TNFα production (15 μM)
1 | Cc1cc(O)cc2c1[C@]1(C)CCC3C(C)(C)CCC[C@]3(C)[C@H]1C2 (stereo partly shown) [Compound 100] | selectively inhibited | 0.3 to 0.6 µM | – | –
2 | Cc1cc(O)c(O)c2c1[C@]1(C)CCC3C(C)(C)CCC[C@]3(C)[C@H]1C2 (stereo partly shown) [AQX-016A] | – | – | 30% | 50%
